Assays:
[1] = target: human recombinant dopamine D2 receptor (Homo sapiens (Human), UniProt P14416); test: Test of binding inhibition for the human dopamine D2 receptor ([3H]-Metylspiperone SPA binding); conditions: [3H]-Metylspiperone 1.2 nM, Jump-In HEK cell membranes, read-out: hD2_Ki
Protocol: Cell membranes: Jump-In HEK cell membranes expressing human recombinant dopamine D2 receptor (2 μg/well)
Buffer solution: 50 mM Tris-HCl (35409-45, Nacalai Tesque) (pH 7.4) containing 120 mM NaCl (31320-05, Nacalai Tesque), 1 mM MgCl2.6H2O (20909-55, Nacalai Tesque), 5 mM KCl (28514-75, Nacalai Tesque) and 2 mM CaCl2 (067-31, Nacalai Chemical, Ltd)
Radioligand: (final concentration) 1.2 nM [^3H]-Metylspiperone ([^3H—N-methyl-]-Metylspiperone, NET-856, 83.8 Ci/mmol, PerkinElmer)
(§1) Non-specific ligand: (final concentration) 10 μM Butaclamol [(+)-Butaclamol Hydrochioride, D033, Sigma]
(§2) SPA beads: SPA beads [WGA PVT SPA Scintillatiion Beads, RPNQ0001 (500 mg), RPNQ0060 (2 g), PerkinElmer] (0.2 mg/well)
(§3) Incubation time and temperature: 120 min at 25° C.
(§4) Butaclamol or the compounds of the present invention were weighed and DMSO was added to make a 10 mM solution. This solution was diluted to each concentration.
[^3H]-Metylspiperone was weighed and the buffer solution was added to make a 3.6 nM solution.
(§5) SPA beads were weighed and stirred in water to make a 50 mg/mL solution. Using this solution, a mixed solution with the cell membranes was prepared.
225 nL of the solutions of the non-specific ligand or the compounds of the present invention at each concentration (in case of vehicle, final concentration 0.3% DMSO) were added in each well of a 384-well white/clear bottom microplate (3706, Corning). Jump-In HEK Cell membranes (final reaction amount: 2 μg protein/well), SPA beads (final reaction amount: 0.2 mg/well) and the buffer were mixed and the mixed solution was left still for more than or equal to 1 h at 4° C. Then, 50 μL of the mixture was added to each well of the plate. In addition, 25 μL of 3.6 nM [^3H]-Metylspiperone (final concentration: 1.2 nM) was added to each well. The plate was sealed by putting TopSeal-A 96/384 well (6050185, PerkinElmer) on the top of the plate, mixed using stirring deaerator (Welltornado, FK-62, Sakaki) and incubated for 120 min at 25° C. After incubation, the radioactivity of [^3H]-Metylspiperone which was binded to D2 receptor was determined by liquid scintillation counter (1450 Microbeta, PerkinElmer) in each well. Non-specific binding was calculated based on the radioactivity of [^3H]-Metylspiperone in the presence of 10 μM non-labeled Butaclamol. The total binding was calculated using the radioactivity of [^3H]-Metylspiperone in the absence of the compounds of the present invention (Vehicle). The Ki values were calculated from dose-response curves.
(§6) Binding activities of the compounds of the present invention were calculated from the following Binding Inhibition Rate (%): Inhibition Rate (%)=[1−(c−a)(b−a)]×100(%) • a: Average cpm of non-specific binding • b: Average cpm of total binding • c: Cpm in the presence of each test compound

[2] = target: human recombinant dopamine D3 receptor (Homo sapiens (Human), UniProt P35462); test: Test of binding inhibition for the human dopamine D3 receptor ([3H]-Metylspiperone SPA binding); conditions: [3H]-Metylspiperone 2 nM, Jump-In HEK cell membranes, read-out: hD3_Ki
Protocol: Cell membranes: Jump-In HEK cell membranes expressing human recombinant dopamine D3 receptor (4 μg/well)
as §1, §2, §3, §4
[^3H]-Metylspiperone was weighed and the buffer solution was added to make a 6 nM solution.
as §5
Jump-In HEK Cell membranes (final reaction amount: 4 μg/well), SPA beads (final reaction amount: 0.2 mg/well) and Tris-HCl buffer were mixed and the mixed solution was left still for more than 60 min at 4° C. Then, 50 μL of the mixture was added to each well of the plate. In addition, 25 μL of 6 nM [^3H]-Metylspiperone (final concentration: 2 nM) was added to each well. […] Non-specific binding was calculated based on the radioactivity of [^3H]-Metylspiperone in the presence of 10 μM non-labeled Butaclamol. The total binding was calculated based on the radioactivity of [^3H]-Metylspiperone in the absence of the compounds of the present invention (Vehicle). The Ki values were calculated from dose-response curves.
as §6

Sequence of human recombinant dopamine D3 receptor (P35462 whole entry): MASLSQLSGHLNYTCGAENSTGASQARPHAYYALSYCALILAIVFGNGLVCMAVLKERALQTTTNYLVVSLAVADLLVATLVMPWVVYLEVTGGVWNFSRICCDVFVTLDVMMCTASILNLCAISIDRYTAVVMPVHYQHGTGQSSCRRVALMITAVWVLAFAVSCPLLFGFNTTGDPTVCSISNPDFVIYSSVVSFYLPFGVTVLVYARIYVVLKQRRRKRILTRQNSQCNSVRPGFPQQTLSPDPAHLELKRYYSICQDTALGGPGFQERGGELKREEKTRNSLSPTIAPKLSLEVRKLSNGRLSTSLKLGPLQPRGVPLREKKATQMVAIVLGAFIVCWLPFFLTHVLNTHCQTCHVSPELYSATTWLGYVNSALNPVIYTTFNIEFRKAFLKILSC
Sequence of human recombinant dopamine D2 receptor (P14416 whole entry): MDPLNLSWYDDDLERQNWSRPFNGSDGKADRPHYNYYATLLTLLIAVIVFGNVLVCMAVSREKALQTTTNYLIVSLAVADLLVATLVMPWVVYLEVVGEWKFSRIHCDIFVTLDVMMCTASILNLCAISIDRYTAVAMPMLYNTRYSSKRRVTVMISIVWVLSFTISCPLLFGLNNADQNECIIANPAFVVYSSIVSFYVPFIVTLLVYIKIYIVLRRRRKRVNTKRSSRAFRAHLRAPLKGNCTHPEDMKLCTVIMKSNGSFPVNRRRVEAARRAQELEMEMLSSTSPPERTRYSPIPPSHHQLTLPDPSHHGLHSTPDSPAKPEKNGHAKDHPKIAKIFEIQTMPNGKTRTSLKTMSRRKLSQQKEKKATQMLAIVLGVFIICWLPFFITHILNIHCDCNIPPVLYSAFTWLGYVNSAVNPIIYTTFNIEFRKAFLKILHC

Row | Ki [1] [nM] | Ki [2] [nM] | SMILES
1 | 430 | 0.085 | Cc1ncc(CC(=O)N[C@H]2CC[C@H](CCN3CCc4ccc(OCC(F)F)nc4CC3)CC2)s1 [II-005]
2 | 640 | 0.026 | CC(Oc1nc2c(s1)CCN(CC[C@H]1CC[C@H](NC(=O)c3cccc4c3CN(C)C4=O)CC1)CC2)C(F)(F)F (some centres unmarked) [III-064]
3 | 1200 | 1.9 | O=C(NCCCCN1CCc2sc(OCC(F)(F)F)nc2C1)c1ccc2ccccc2c1 [Compound I-140]
4 | 230 | 0.048 | CCn1c(C(=O)N[C@H]2CC[C@H](CCN3CCc4ccc(OCC(F)(F)F)nc4CC3)CC2)cccc1=O [II-081]
5 | > 1800 | 0.83 | Cn1cc2c(C(=O)N[C@H]3CC[C@H](CCN4CCc5sc(COC(F)(F)F)nc5C4)CC3)cccc2n1 [III-623]
6 | 400 | 0.11 | Cn1cc(CC(=O)N[C@H]2CC[C@](F)(CCN3CCc4ccc(OCC(F)(F)F)nc4CC3)CC2)cn1 [III-102]
7 | 770 | 0.52 | Cc1cnc(CC(=O)N[C@H]2CC[C@H](CCN3CCc4sc(CCC(F)(F)F)nc4C3)CC2)o1 [III-698]
8 | 610 | 0.58 | Cc1nnc(CC(=O)N[C@H]2CC[C@](F)(CCN3CCc4nc(OCC(F)(F)F)sc4CC3)CC2)o1 [III-253]
9 | > 1900 | 0.52 | Cc1ncc(CC(=O)N[C@H]2CC[C@H](CCN3CCc4nc(OCC(C)(C)F)sc4CC3)CC2)s1 [II-099]
10 | 230 | 0.45 | CC(=O)N[C@H]1CC[C@H](CCN2CCc3nc(OCC(C)(F)F)sc3CC2)CC1 [II-014]
11 | 570 | 0.78 | Cc1nnc(CC(=O)N[C@H]2CC[C@H](CCN3CCc4nc(OCC(F)F)sc4CC3)CC2)o1 [III-273]
12 | 1400 | 0.79 | Cc1ncc(CC(=O)N[C@H]2CC[C@H](CCN3CCc4ccc(OCC(C)F)nc4CC3)CC2)s1 (some centres unmarked) [III-203]
13 | 650 | 0.48 | Cc1ncc(CC(=O)N[C@H]2CC[C@H](CCN3CCc4sc(OCC(C)(F)F)nc4C3)CC2)o1 [III-451]
14 | 580 | 0.37 | Cn1cc2c(C(=O)N[C@H]3CC[C@H](CCN4CCc5sc(OCC(F)(F)F)nc5C4)CC3)cccc2n1 [III-464]
15 | 290 | 0.36 | Cc1nnc(CC(=O)N[C@H]2CC[C@](F)(CCN3CCc4nc(OCC(F)(F)F)sc4CC3)CC2)s1 [III-269]
16 | 140 | 0.13 | Cn1cc(/C=C/C(=O)N[C@H]2CC[C@H](CCN3CCc4nc(OCC(F)(F)F)sc4CC3)OC2)cn1 [III-168]
17 | 860 | 0.91 | O=C(N[C@H]1C[C@@H]2[C@@H](CCN3CCc4sc(OCC(F)F)nc4C3)[C@@H]2C1)c1cccc2ncccc12 [Compound I-124]
18 | 1000 | 0.29 | Cn1cc2c(C(=O)N[C@H]3CC[C@H](CCN4CCc5sc(CCC(F)(F)F)nc5C4)CC3)cccc2n1 [III-452]
19 | 170 | 3.6 | O=C(N[C@H]1CC[C@H](CCN2CC[C@H]3CN(c4ccccc4)C[C@@H]3C2)CC1)c1cccc2ncccc12 (racemic) [Compound I-033]
20 | > 1900 | 7.4 | Cc1ncc(CC(=O)N[C@H]2CC[C@H](CCN3CCc4cn(CCC(F)(F)F)nc4CC3)CC2)s1 [II-088]
21 | 370 | 0.82 | Cc1ncc(CC(=O)N[C@H]2CC[C@H](CCN3CCc4sc(OCC(F)F)nc4C3)CC2)s1 [Compound I-107]
22 | 480 | 0.57 | Cn1cc(CC(=O)N[C@H]2CC[C@](F)(CCN3CCc4nc(OCC(F)(F)F)sc4CC3)CC2)cn1 [III-261]
23 | > 1800 | 0.48 | Cn1cc2c(C(=O)N[C@H]3CC[C@H](CCN4CCc5cnc(CCC(F)(F)F)nc5CC4)CC3)cccc2n1 [II-072]
24 | 500 | 1.4 | Cn1c(-c2ccccc2)nc2c1CCN(CC[C@H]1CC[C@H](NC(=O)c3cccc4ncccc34)CC1)C2 [Compound I-070]
25 | > 1700 | 4.7 | O=C(N[C@H]1CC[C@H](CCN2CCc3cn(Cc4ccccc4)nc3C2)CC1)c1cccc2ncccc12 [Compound I-113]
